Reference: US20230172201A1, “Use of 4-Phenylbutyric Acid and/or 3-Phenylbutyric Acid and/or 2-Phenylbutyric Acid in Preventing and Treating Cryptogamic Diseases” (Institut National de Recherche Pour L'Agriculture, …, priority 2020, published 2023)
Like-named read-outs stand apart in the source and are kept apart here.

How the values were obtained:
[1] = tested on: Arabidopsis thaliana (ecotype Col-0); assay: Phytotoxicity after leaf infiltration; type: in vivo; details: 0.5 or 1 mM; 48 hours after infiltration
Experimental: Material and Methods. Seeds of A. thaliana (ecotype Col-0) were sown in individual pots directly on compost without a prior step of stratification. […] The experiment was repeated 3 times. Each experiment included about ten plants. Six leaves representative of the 3 experiments were photographed 48 hours after infiltration (FIG. 5c).

[2] = tested on: Botrytis cinerea (BMM strain); assay: Protection of grapevine foliar disks against gray rot, B. cinerea spore inoculum with or without 4-PBA; type: in vivo; details: grapevine cv. Gamay foliar disks; 4-PBA 1 mM; 5·10^4 spores/mL; 3 days
Experimental: Material and Methods. A commercial variety of grapevine (Vitis […], cultivar Gamay) was grown in a greenhouse for 6 weeks. […] The inoculum was prepared as mentioned above for the experiments carried out with A. thaliana. A volume of 6 μL was deposited on each disk. The infected disks were incubated as for the experiments carried out on foliar disks of tomato. The disease symptoms were photographed and quantified 3 days after infection from the distribution of the lesions as a function of their diameter and by measuring the largest diameter of the lesions. […] The results presented in FIG. 4 correspond to the mean values±standard deviation.

[3] = tested on: Leptosphaeria maculans; assay: Radial growth of the mycelium; type: cell-based; details: Plenodomus lingam, 432 h, time 18 days
[4] = tested on: Phanerochaete chrysosporium; assay: Radial growth of the mycelium; type: cell-based
[5] = tested on: Alternaria brassicicola; assay: Radial growth of the mycelium; type: cell-based; details: 240 h; for inhibition at 1000 µM / inhibition at 2000 µM / inhibition at 5000 µM: time 10 days
[6] = tested on: Zymoseptoria tritici; assay: Growth of the primary hypha on PG solid medium; type: cell-based
[7] = tested on: Botrytis cinerea (BMM strain); assay: Protection of tomato foliar disks against gray rot, B. cinerea spore inoculum with or without compound; type: in vivo; details: for proportion of lesions larger than 4 mm in diameter: tomato Moneymaker foliar disks, 3 days; for median ratio of gDNA of the fungus to that of the plant, times lower than fungus alone / decrease of the average diameter of the lesions: tomato Moneymaker
[8] = tested on: Botrytis cinerea (BMM strain); assay: Germination of the spores and growth of the primary hypha in liquid medium; type: cell-based; details: 16 to 18 hours
[9] = tested on: Sclerotinia sclerotorum; assay: Radial growth of the mycelium; type: cell-based; details: 168 h
[10] = tested on: Botrytis cinerea (BMM strain); assay: Radial growth of the mycelium on solid PDA medium
Experimental: The BMM strain of the fungus B. cinerea was cultured for about 10 days on solid PDA medium (24 g/L of PDB and 15 g/L of agar) in the dark and at a temperature of 22° C. A cylinder of agar comprising the mycelium at its top was then cut out with a sterile punch with a diameter of 6 mm, and was then deposited at the center of round Petri dishes (9 cm diameter) containing PDA medium supplemented or not with 4-PBA. 4-PBA, prepared extemporaneously, was added directly to the molten culture medium to final concentrations of 1, 2 and 5 mM. Controls were prepared by adding a volume of sterile water equivalent to the highest concentration of 4-PBA. The dishes were kept in the dark at a temperature of 22° C. throughout the experiment. […] For this, the following linear regression was used: Degree of inhibition (%)=f(ln[4-PBA]).

[11] = tested on: Phytophthora parasitica; assay: Radial growth of the oomycete; type: cell-based; details: 2 and 5 mM

`O=C(O)CCCc1ccccc1` [4-PBA, 4-Phenylbutyric acid] was tested, and the “macroscopic symptoms after infiltration of the leaves” value [1] was “absence of macroscopic symptoms”, the “decrease in the average diameter of the lesions” value [2] was about 75% and the inhibition at 1000 µM ([3]; 1 mM 4-PBA) was 73%. For the same compound, the inhibition at 2000 µM ([3]; 2 mM 4-PBA) was 99%, the inhibition at 5000 µM ([3]; 5 mM 4-PBA) was 99% and the “time for the fungus to overcome supplementation of the culture medium” value ([4]; 4-PBA 1 mM) was 14 days. It also gave an inhibition at 1000 µM ([4]; Phanerodontia chrysosporium, 96 h, 1 mM 4-PBA, time 4 days) of 99%, an inhibition at 2000 µM ([4]; Phanerodontia chrysosporium, 96 h, 2 mM 4-PBA, time 4 days) of 100% and an inhibition at 5000 µM ([4]; Phanerodontia chrysosporium, 96 h, 5 mM 4-PBA, time 4 days) of 100%. For the same compound, the “development at higher concentrations” value ([4]; final concentrations of 2 and 5 mM) was “unable to develop”, the inhibition at 1000 µM ([5]; strain 1, 1 mM 4-PBA) was 70% and the inhibition at 2000 µM ([5]; strain 1, 2 mM 4-PBA) was 88%. It also gave an inhibition at 5000 µM ([5]; strain 1, 5 mM 4-PBA) of 97%, an EC50 ([5]; strain 1, time 10 days) of 260 µM and an inhibition at 1000 µM ([5]; strain 1509, 1 mM 4-PBA) of 58%. The inhibition at 2000 µM ([5]; strain 1509, 2 mM 4-PBA) was 81%, the inhibition at 5000 µM ([5]; strain 1509, 5 mM 4-PBA) was 96% and the EC50 ([5]; strain 1509, time 10 days) was 640 µM. It also gave an EC50 ([6]; 48 h, isolate 14-FT-A1, 48 hours) of 245 µg/mL, an EC50 ([6]; 48 h, isolate 14-FT-A1, 48 hours, read-out: EC50) of 1320 µM and an EC50 ([6]; 48 h, isolate 37-30, 48 hours) of 163 µg/mL. The EC50 ([6]; 48 h, isolate 37-30, 48 hours, read-out: EC50) was 874 µM, the EC50 ([6]; 48 h, isolate 37-41, 48 hours) was 164 µg/mL and the EC50 ([6]; 48 h, isolate 37-41, 48 hours, read-out: EC50) was 880 µM. For the same compound, the EC50 ([6]; 48 h, isolate 11183, 48 hours) was 196 µg/mL, the EC50 ([6]; 48 h, isolate 11183, 48 hours, read-out: EC50) was 1050 µM and the EC50 ([6]; 48 h, isolate IPO-323, 48 hours) was 122 µg/mL. It also gave an EC50 ([6]; 48 h, isolate IPO-323, 48 hours, read-out: EC50) of 657 µM, an EC50 ([6]; 48 h, isolate ST5548, 48 hours) of 246 µg/mL and an EC50 ([6]; 48 h, isolate ST5548, 48 hours, read-out: EC50) of 1320 µM. It also gave an EC50 ([6]; 48 h, isolate STDP-047915, 48 hours) of 212 µg/mL, an EC50 ([6]; 48 h, isolate STDP-047915, 48 hours, read-out: EC50) of 1140 µM and an EC50 ([6]; six isolates resistant to conventional fungicides, read-out: EC50 calculated for all of these isolates, order of magnitude) of about 1000 µM. For the same compound, the “average diameters of the foliar lesions as a function of concentration” value ([7]; tomato M82 foliar disks, 0.5 to 2.5 mM) was “gradual decrease”, the “efficacy of protection compared with the Moneymaker variety” value ([7]; tomato M82 foliar disks, 4-PBA 1 mM) was “equivalent efficacy” and the “proportion of lesions larger than 4 mm in diameter” value ([7]; 4-PBA 1 mM, 5·10^4 spores/mL) was 15%. For the same compound, the “proportion of lesions larger than 4 mm in diameter” value ([7]; 4-PBA 1 mM, 5·10^5 spores/mL) was 23%, the “median ratio of gDNA of the fungus to that of the plant, times lower than fungus alone” value ([7]; 4-PBA 1 mM, 5·1^04 spores/mL) was 40 times and the “median ratio of gDNA of the fungus to that of the plant, times lower than fungus alone” value ([7]; 4-PBA 1 mM, 5·10^5 spores/mL) was 10 times. For the same compound, the “decrease of the average diameter of the lesions” value ([7]; 4-PBA 1 mM, highest concentration of spores (5·10^5 spores/mL)) was 58%, the “decrease of the average diameter of the lesions” value ([7]; 4-PBA 1 mM, lowest concentration of spores (5·10^4 spores/mL)) was 68% and the “germination rate of the spores” value ([8]; 4-PBA 0.1 mM) was 100%. For the same compound, the inhibition at 1000 µM ([8]; Botrytis cinerea, 1 mM) was 86%, the “concentration from which growth of the primary hypha is limited” value ([8]; liquid PDB) was at least 0.1 mM and the inhibition at 1000 µM ([9]; 1 mM 4-PBA, time 7 days) was 0%. It also gave an inhibition at 2000 µM ([9]; 2 mM 4-PBA, time 7 days) of 73%, an inhibition at 5000 µM ([9]; 5 mM 4-PBA, time 7 days) of 100% and an EC50 ([9]; time 7 days (day control colonized the whole Petri dish)) of 1900 µM. The “persistence of the active principle” value ([10]; 5 mM in culture medium) was “up to 23 days”, the “radial growth of the mycelium” value ([10]; 1, 2 and 5 mM in PDA, 26 days) was “dose-dependent slowing” and the EC50 ([10]; Botrytis cinerea, read-out: EC50 (median inhibitory concentration, radial growth halved)) was 2000 to 3000 µM. For the same compound, the “growth at higher concentrations” value [11] was “complete absence of growth for 20 days”.
